# Results: PMC8579695, “The Stringent Response Inhibits 70S Ribosome Formation in Staphylococcus aureus by Impeding GTPase-Ribosome Interactions” (mBio, 2021)
# Test system: HflX binding to 50S ribosomes
# Assay: Stopped-flow fluorescence kinetics of HflX-Atto488 association to 50S subunits
# Parameters: species or system Staphylococcus aureus
# Protocol: FIG 3 Stopped-flow kinetic parameters of RA-GTPase association to the ribosomal subunits. (A) Schematic representation of the experimental setup for stopped-flow analysis. Nucleotides (brown circles), 50S subunits (orange oval), and Atto488-labeled RA-GTPases (purple hexagon) are indicated. Arrows indicate the direction of syringe movement. Atto-488 was excited using a 470-nm LED, and fluorescence was detected through a 515-nm long-pass filter. (B and C) Fluorescent change upon mixing 0.2 μM RbgA-Atto488 (B) or HflX-Atto488 (C) with 0.2 μM 50S ribosomal subunits in the presence of 100 μM GTP, ppGpp, and pppGpp or in the apo state using the stopped-flow fluorescence apparatus. Fluorescently labeled protein was also mixed with buffer lacking 50S subunits as a mixing control. Fluorescence of the reaction was tracked using exponential sampling for 10 s, and each curve represents the mean average of at least five technical replicates. (D) kapp1 dependence on 50S concentration for HflX complexed with GTP (green), ppGpp (pink), and pppGpp (black). (E) Same as for panel D for the kapp2 dependence. (F and G) Sum and product analyses of apparent rates during HflX association to the 50S subunit. HflX-Atto488 (0.05 μM) was mixed with increasing titrations of 50S ribosomal subunits over the fluorescently labeled protein in the presence of 20 μM GTP or ppGpp. The resultant traces (see Fig. S4) were analyzed by nonlinear regression using two exponential terms. The sum (F) and product (G) of apparent rates (kapp1 [D] and kapp2 [E]) were plotted as a function of the total concentration of the 50S subunits and HflX protein to determine the microscopic constants k1, k-1, k2, and k-2 (Table 2) and the resulting dissociation constant (Kd) (see Materials and Methods). Error bars represent the standard deviations of the apparent rates of four or more individual traces (D and E) or the standard errors of the two-step analysis (F and G).
# Next, we used a constant concentration of protein in the presence of 200-fold excess of each nucleotide and titrated it with increasing concentrations of ribosomal subunits (see Fig. S4). […]
# For initial controls, 0.2 μM Atto-488-labeled proteins were rapidly mixed with 0.2 μM E. coli 50S ribosomal subunits (purified as described elsewhere) in TAKM7 buffer (25 mM Tris-HCl [pH 7.4], 70 mM ammonium acetate, 30 mM KCl, 7 mM MgCl2) using an SX20 stopped-flow apparatus (Applied Photophysics) in the presence or absence of GTP, ppGpp, and pppGpp. […] Atto-488 was excited using a 470-nm LED and fluorescence was detected through a 515-nm long-pass filter. Reactions were monitored for 10 s, with 1,000 total data points per reaction. Each condition was subject to at least five technical repeats, with curves representing the mean average fluorescence of the technical repeats. […]
smiles,measurement,setting,value
Nc1nc2c(ncn2[C@@H]2O[C@H](COP(=O)(O)OP(=O)(O)O)[C@@H](OP(=O)(O)OP(=O)(O)O)[C@H]2O)c(=O)[nH]1 [ppGpp],"reduction of the second, slow-phase reaction of HflX relative to GTP-bound",,4 fold
same,kapp2 of HflX association to 50S,"GTP: hyperbolic, plateau, ppGpp: independent of 50S concentration",1.0 s⁻¹
